Laboratory results: publication PMC10094048, “Synthesis and Anticancer Evaluation of 4-Anilinoquinolinylchalcone Derivatives” (International Journal of Molecular Sciences, 2023)
Where a name gives a salt, the structure may show the parent alone.

Assays:
MDA-MB-231 = assay: XTT antiproliferative assay, MDA-MB-231; assay type: cell-based; conditions: Homo sapiens, 72 h, mean ± SD
Description: (§1) All the synthesized 4-anilinoquinolinylchalcone derivatives were evaluated in vitro against two cancer cells (Huh-7 and MDA-MB-231) and a non-cancer normal fibroblast lung cell line (MRC-5) using an XTT (sodium 3′-[1-(phenylamino-carbonyl)-3,4-tetrazolium}-bis(4-methoxy-6-nitro)benzene sulfonic acid hydrate) assay. The concentration that inhibited the growth of 50% of cells (IC50) was determined from the linear portion of the curve by calculating the concentration of the tested agent that reduced absorbance in treated cells, compared to control cells, by 50%. The IC50 results of these 4-anilinoquinolinylchalcone derivatives are summarized (Table 1). […] Thus, 4a was selected as a lead compound for further mechanism studies.
(§2) Cancer cells (Huh-7, MDA-MB-231) and normal lung cells (MRC-5) were purchased from Bioresources Collection and Research Center, Taiwan. Cells were maintained in the same standard medium, grown as a monolayer in DMEM (Gibco, Miami, FL, USA), and supplemented with 10% fetal bovine serum (FBS) and antibiotics, i.e., 100 IU/mL penicillin, 0.1 mg/mL streptomycin and 0.25 μg/mL amphotericin. The culture was maintained at 37 °C with 5% CO2 in a humidified atmosphere. Cells (5 × 10^3 cells/well) were treated with tested compounds for 72 h in the medium containing 10% FBS. Cell viability was quantitated with the use of sodium 3′-[1-(phenylamino-carbonyl)-3,4-tetrazolium}-bis(4-methoxy-6-nitro)benzene sulfonic acid hydrate (XTT) colorimetric assay (Biological Industries, Beit-Haemek, Israel). XTT labeling reagent (1 mg/mL) was mixed with electron-coupling reagent, following the manufacturer’s instructions, and 50 μL of the mixture was added directly to the cells. The plates were further incubated at 37 °C for 4 h. Color was measured spectrophotometrically in a microtiter plate reader at 492 nm and used as a relative measurement of viable cell numbers. After drug treatment, the viable cell number was compared to the solvent and untreated control cell number. This information was used to determine the percent of control growth as (Abtreated/Abcontrol) × 100, where Ab represents the mean absorbance (n = 3). The concentration that killed 50% of cells (IC50) was determined from the linear portion of the curve by calculating the concentration of the agent that reduced the absorbance in treated cells, compared to control cells, by 50%.

MRC-5 = assay: XTT antiproliferative assay, normal lung cells MRC-5; assay type: cell-based; conditions: Homo sapiens, MRC5, 72 h, mean ± SD
Description: as §1, §2

Huh-7 = assay: XTT antiproliferative assay, Huh-7; assay type: cell-based; conditions: Homo sapiens, 72 h, mean ± SD
Description: as §1, §2

Structure (SMILES): COc1ccc(C(=O)/C=C/c2cc(Nc3ccc(OCc4ccccc4)cc3)c3ccccc3n2)cc1 (as salt: salt) [Compound 4a, (E)-3-{4-{[4-(Benzyloxy)phenyl]amino}quinolin-2-yl}-1-(4-methoxyphenyl)prop-2-en-1-one]
- melting point: 200 to 201 °C

Structure (SMILES): COc1ccc(C(=O)/C=C/c2cc(Nc3ccc(OCc4ccccc4Cl)cc3)c3ccccc3n2)cc1 (as salt: salt) [Compound 4b, (E)-3-{4-{{4-[(2-Chlorobenzyl)oxy]phenyl}amino}quinolin-2-yl}-1-(4-methoxy - phenyl) prop-2-en-1-one]
- melting point: 160 to 161 °C

Structure (SMILES): COc1ccc(C(=O)/C=C/c2cc(Nc3ccc(OCc4ccccc4F)cc3)c3ccccc3n2)cc1 (as salt: salt) [Compound 4c]
- melting point: 175 to 176 °C

Structure (SMILES): COc1ccc(C(=O)/C=C/c2cc(Nc3ccc(OCc4cccc(Cl)c4)cc3)c3ccccc3n2)cc1 (as salt: salt) [Compound 4d, (E)-3-{4-{{4-[(3-Chlorobenzyl)oxy]phenyl}amino}quinolin-2-yl}-1-(4-methoxy-phenyl) prop-2-en-1-one]
- melting point: 132 to 133 °C

Structure (SMILES): COc1ccc(C(=O)/C=C/c2cc(Nc3ccc(OCc4cccc(F)c4)cc3)c3ccccc3n2)cc1 (as salt: salt) [Compound 4e, (E)-3-{4-{{4-[(3-Fluorobenzyl)oxy]phenyl}amino}quinolin-2-yl}-1-(4-methoxy-phenyl) prop-2-en-1-one]
- melting point: 171 to 172 °C

Structure (SMILES): COc1ccc(C(=O)/C=C/c2cc(Nc3ccc(OCc4ccc(Cl)cc4)cc3)c3ccccc3n2)cc1 (as salt: salt) [Compound 4g, (E )-3-{4-{{4-[(4-Chlorobenzyl)oxy]phenyl}amino}quinolin-2-yl}-1-(4-methoxy - phenyl)prop-2-en-1-one]
- melting point: 142 to 143 °C

Structure (SMILES): COc1ccc(C(=O)/C=C/c2cc(Nc3ccc(OCc4ccc(F)cc4)cc3)c3ccccc3n2)cc1 (as salt: salt) [Compound 4h, (E)-3-{4-{ {4-[ (4-Fluorobenzyl)oxy]phenyl}amino}quinolin-2-yl}-1-(4-methoxy - phenyl)prop-2-en-1-one]
- melting point: 176 to 177 °C

Structure (SMILES): O=C(/C=C/c1cc(Nc2ccc(OCc3ccccc3)cc2)c2ccccc2n1)c1ccc(F)cc1 (as salt: salt) [Compound 5a, (E)-3-{4-{[4-(Benzyloxy)phenyl]amino}quinolin-2-yl}-1-(4-fluorophenyl)prop-2-en-1-one]
- melting point: 162 to 163 °C

Structure (SMILES): O=C(/C=C/c1cc(Nc2ccc(OCc3ccccc3Cl)cc2)c2ccccc2n1)c1ccc(F)cc1 (as salt: salt) [Compound 5b, (E)-3-{4-{{4-[(2-Chlorobenzyl)oxy]phenyl}amino}quinolin-2-yl}-1-(4-fluorophenyl) prop-2-en-1-one]
- melting point: 192 to 193 °C

Structure (SMILES): O=C(/C=C/c1cc(Nc2ccc(OCc3ccccc3F)cc2)c2ccccc2n1)c1ccc(F)cc1 (as salt: salt) [Compound 5c, (E)-3-{4-{{4-[(2-Fluorobenzyl)oxy]phenyl}amino}quinolin-2-yl}-1-(4-fluorophenyl) prop-2-en-1-one]
- melting point: 207 to 208 °C

Structure (SMILES): O=C(/C=C/c1cc(Nc2ccc(OCc3cccc(Cl)c3)cc2)c2ccccc2n1)c1ccc(F)cc1 (as salt: salt) [Compound 5d, (E)-3-{4-{{4-[(3-Chlorobenzyl)oxy]phenyl}amino}quinolin-2-yl}-1-(4-fluorophenyl) prop-2-en-1-one]
- melting point: 172 to 173 °C

Structure (SMILES): O=C(/C=C/c1cc(Nc2ccc(OCc3cccc(F)c3)cc2)c2ccccc2n1)c1ccc(F)cc1 (as salt: salt) [Compound 5e, (E)-3-{4-{{4-[(3-Fluorobenzyl)oxy]phenyl}amino}quinolin-2-yl}-1-(4-fluorophenyl)prop-2-en-1-one]
- melting point: 213 to 214 °C

Structure (SMILES): COc1ccc(C(=O)/C=C/c2cc(Nc3ccc(OCc4ccccc4Cl)cc3)c3ccccc3n2)cc1 [Compound 4b, (E)-3-{4-{{4-[(2-Chlorobenzyl)oxy]phenyl}amino}quinolin-2-yl}-1-(4-methoxy - phenyl) prop-2-en-1-one]
- IC50 (MDA-MB-231): 1590 ± 150 nM
- IC50 (MRC-5): > 20 µM
- IC50 (Huh-7): 1830 ± 220 nM

Structure (SMILES): COc1ccc(C(=O)/C=C/c2cc(Nc3ccc(OCc4ccccc4F)cc3)c3ccccc3n2)cc1 [Compound 4c]
- IC50 (MDA-MB-231): 1040 ± 40 nM
- IC50 (MRC-5): > 20 µM
- IC50 (Huh-7): 810 ± 60 nM

Structure (SMILES): COc1ccc(C(=O)/C=C/c2cc(Nc3ccc(OCc4cccc(Cl)c4)cc3)c3ccccc3n2)cc1 [Compound 4d, (E)-3-{4-{{4-[(3-Chlorobenzyl)oxy]phenyl}amino}quinolin-2-yl}-1-(4-methoxy-phenyl) prop-2-en-1-one]
- IC50 (MDA-MB-231): 180 ± 60 nM
- IC50 (MRC-5): > 20 µM
- IC50 (Huh-7): 690 ± 40 nM

Structure (SMILES): COc1ccc(C(=O)/C=C/c2cc(Nc3ccc(OCc4cccc(F)c4)cc3)c3ccccc3n2)cc1 [Compound 4e, (E)-3-{4-{{4-[(3-Fluorobenzyl)oxy]phenyl}amino}quinolin-2-yl}-1-(4-methoxy-phenyl) prop-2-en-1-one]
- IC50 (MDA-MB-231): 540 ± 110 nM
- IC50 (MRC-5): > 20 µM
- IC50 (Huh-7): 1450 ± 280 nM

Structure (SMILES): COc1ccc(C(=O)/C=C/c2cc(Nc3ccc(OCc4cccc(OC)c4)cc3)c3ccccc3n2)cc1 [Compound 4f, (E)-3-{4-{{4-[(3-Methoxybenzyl)oxy]phenyl}amino}quinolin-2-yl}-1-(4-methoxy - phenyl)prop-2-en-1-one]
- IC50 (MDA-MB-231): 1940 ± 520 nM
- IC50 (MRC-5): > 20 µM
- IC50 (Huh-7): 1410 ± 40 nM

Structure (SMILES): COc1ccc(C(=O)/C=C/c2cc(Nc3ccc(OCc4ccc(Cl)cc4)cc3)c3ccccc3n2)cc1 [Compound 4g, (E )-3-{4-{{4-[(4-Chlorobenzyl)oxy]phenyl}amino}quinolin-2-yl}-1-(4-methoxy - phenyl)prop-2-en-1-one]
- IC50 (MDA-MB-231): 1710 ± 350 nM
- IC50 (MRC-5): > 20 µM
- IC50 (Huh-7): 1310 ± 560 nM

Structure (SMILES): COc1ccc(C(=O)/C=C/c2cc(Nc3ccc(OCc4ccc(F)cc4)cc3)c3ccccc3n2)cc1 [Compound 4h, (E)-3-{4-{ {4-[ (4-Fluorobenzyl)oxy]phenyl}amino}quinolin-2-yl}-1-(4-methoxy - phenyl)prop-2-en-1-one]
- IC50 (MDA-MB-231): 1690 ± 210 nM
- IC50 (MRC-5): > 20 µM
- IC50 (Huh-7): 1370 ± 280 nM

Structure (SMILES): O=C(/C=C/c1cc(Nc2ccc(OCc3ccccc3)cc2)c2ccccc2n1)c1ccc(F)cc1 [Compound 5a, (E)-3-{4-{[4-(Benzyloxy)phenyl]amino}quinolin-2-yl}-1-(4-fluorophenyl)prop-2-en-1-one]
- IC50 (MDA-MB-231): 1650 ± 770 nM
- IC50 (MRC-5): > 20 µM
- IC50 (Huh-7): 1240 ± 90 nM

Structure (SMILES): O=C(/C=C/c1cc(Nc2ccc(OCc3ccccc3Cl)cc2)c2ccccc2n1)c1ccc(F)cc1 [Compound 5b, (E)-3-{4-{{4-[(2-Chlorobenzyl)oxy]phenyl}amino}quinolin-2-yl}-1-(4-fluorophenyl) prop-2-en-1-one]
- IC50 (MDA-MB-231): 1530 ± 210 nM
- IC50 (MRC-5): > 20 µM
- IC50 (Huh-7): 1240 ± 300 nM

Structure (SMILES): O=C(/C=C/c1cc(Nc2ccc(OCc3ccccc3F)cc2)c2ccccc2n1)c1ccc(F)cc1 [Compound 5c, (E)-3-{4-{{4-[(2-Fluorobenzyl)oxy]phenyl}amino}quinolin-2-yl}-1-(4-fluorophenyl) prop-2-en-1-one]
- IC50 (MDA-MB-231): 1420 ± 700 nM
- IC50 (MRC-5): > 20 µM
- IC50 (Huh-7): 1250 ± 70 nM

Structure (SMILES): O=C(/C=C/c1cc(Nc2ccc(OCc3cccc(Cl)c3)cc2)c2ccccc2n1)c1ccc(F)cc1 [Compound 5d, (E)-3-{4-{{4-[(3-Chlorobenzyl)oxy]phenyl}amino}quinolin-2-yl}-1-(4-fluorophenyl) prop-2-en-1-one]
- IC50 (MDA-MB-231): 1760 ± 130 nM
- IC50 (MRC-5): > 20 µM
- IC50 (Huh-7): 1280 ± 210 nM

Structure (SMILES): O=C(/C=C/c1cc(Nc2ccc(OCc3cccc(F)c3)cc2)c2ccccc2n1)c1ccc(F)cc1 [Compound 5e, (E)-3-{4-{{4-[(3-Fluorobenzyl)oxy]phenyl}amino}quinolin-2-yl}-1-(4-fluorophenyl)prop-2-en-1-one]
- IC50 (MDA-MB-231): 1820 ± 280 nM
- IC50 (MRC-5): > 20 µM
- IC50 (Huh-7): 1270 ± 60 nM

Structure (SMILES): COc1cccc(COc2ccc(Nc3cc(/C=C/C(=O)c4ccc(F)cc4)nc4ccccc34)cc2)c1 [Compound 5f, (E)-1-(4-Fluorophenyl)-3-{4-{{4-[(3-methoxybenzyl)oxy]phenyl}amino}quinolin-2-yl}prop-2-en-1-one]
- IC50 (MDA-MB-231): 2030 ± 140 nM
- IC50 (MRC-5): > 20 µM
- IC50 (Huh-7): 1340 ± 350 nM

Structure (SMILES): O=C(/C=C/c1cc(Nc2ccc(OCc3ccc(Cl)cc3)cc2)c2ccccc2n1)c1ccc(F)cc1 [Compound 5g, (E)-3-{4-{{4-[(4-Chlorobenzyl)oxy]phenyl}amino}quinolin-2-yl}-1-(4-fluorophenyl)prop-2-en-1-one]
- IC50 (MDA-MB-231): 1500 ± 770 nM
- IC50 (MRC-5): > 20 µM
- IC50 (Huh-7): 1300 ± 140 nM

Structure (SMILES): O=C(/C=C/c1cc(Nc2ccc(OCc3ccc(F)cc3)cc2)c2ccccc2n1)c1ccc(F)cc1 [Compound 5h, (E)-3-{4-{{4-[(4-Fluorobenzyl)oxy]phenyl}amino}quinolin-2-yl}-1-(4-fluorophenyl)prop-2-en-1-one]
- IC50 (MDA-MB-231): 1680 ± 210 nM
- IC50 (MRC-5): > 20 µM
- IC50 (Huh-7): 1290 ± 280 nM
